ChEMBL document CHEMBL5465560, “Selectivity Literature for EUbOPEN Chemogenomic Library” (2024)

What was measured:
[1] = target: DNA (cytosine-5)-methyltransferase 1 (Homo sapiens) (UniProt P26358); experiment: Selectivity interaction (Methyltransferase screen (Scintillation proximity assays)) EUB0000255b DNMT1
[2] = target: T1, Serine/threonine-protein kinase greatwall (Homo sapiens) (UniProt Q96GX5); experiment: Selectivity interaction (ActivX KiNativ screen (kinase selectivity in THP-1 cell lysates)) EUB0000639a MASTL; type: subcellular; conditions: lysate, at 0.2 µM
T1 sequence (whole entry): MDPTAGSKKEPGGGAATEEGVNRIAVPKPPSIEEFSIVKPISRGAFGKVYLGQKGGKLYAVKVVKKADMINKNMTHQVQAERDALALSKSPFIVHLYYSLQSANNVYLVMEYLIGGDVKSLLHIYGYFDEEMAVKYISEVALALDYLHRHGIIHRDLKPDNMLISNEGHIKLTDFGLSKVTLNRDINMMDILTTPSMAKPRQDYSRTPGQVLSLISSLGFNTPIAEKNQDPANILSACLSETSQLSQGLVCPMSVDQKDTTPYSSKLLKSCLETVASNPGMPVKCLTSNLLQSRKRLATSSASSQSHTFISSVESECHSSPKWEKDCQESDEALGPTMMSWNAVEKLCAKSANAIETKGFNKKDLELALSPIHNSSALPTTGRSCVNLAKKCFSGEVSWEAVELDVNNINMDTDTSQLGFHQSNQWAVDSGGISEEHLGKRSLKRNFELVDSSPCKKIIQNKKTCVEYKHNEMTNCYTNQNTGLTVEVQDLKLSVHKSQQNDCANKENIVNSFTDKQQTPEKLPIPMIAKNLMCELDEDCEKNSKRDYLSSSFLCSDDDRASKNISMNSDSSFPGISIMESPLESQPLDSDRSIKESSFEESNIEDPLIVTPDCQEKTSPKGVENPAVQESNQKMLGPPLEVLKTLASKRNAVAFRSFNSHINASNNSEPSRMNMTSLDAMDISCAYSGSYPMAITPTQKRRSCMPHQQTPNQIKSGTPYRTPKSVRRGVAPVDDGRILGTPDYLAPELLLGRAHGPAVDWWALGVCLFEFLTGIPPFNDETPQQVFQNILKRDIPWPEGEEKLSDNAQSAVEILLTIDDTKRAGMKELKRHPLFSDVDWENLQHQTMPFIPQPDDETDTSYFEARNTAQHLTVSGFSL

[3] = target: Tyrosine-protein kinase ABL1 (Homo sapiens, UniProt P00519); experiment: Selectivity interaction (ActivX KiNativ screen (kinase selectivity in THP-1 cell lysates)) EUB0000639a ABL1; type: subcellular; conditions: lysate, at 0.01 µM
[4] = target: Atypical kinase COQ8A, mitochondrial (Homo sapiens, UniProt Q8NI60); experiment: Selectivity interaction (KinomeScan (DiscoverX)) EUB0000618a ADCK3; conditions: at 10 µM
[5] = target: T2, Serine/threonine-protein kinase DCLK1 (Homo sapiens) (UniProt O15075); experiment: Selectivity interaction (KinomeScan (DiscoverX)) EUB0000618a DCLK1; conditions: at 10 µM
T2 sequence (whole entry): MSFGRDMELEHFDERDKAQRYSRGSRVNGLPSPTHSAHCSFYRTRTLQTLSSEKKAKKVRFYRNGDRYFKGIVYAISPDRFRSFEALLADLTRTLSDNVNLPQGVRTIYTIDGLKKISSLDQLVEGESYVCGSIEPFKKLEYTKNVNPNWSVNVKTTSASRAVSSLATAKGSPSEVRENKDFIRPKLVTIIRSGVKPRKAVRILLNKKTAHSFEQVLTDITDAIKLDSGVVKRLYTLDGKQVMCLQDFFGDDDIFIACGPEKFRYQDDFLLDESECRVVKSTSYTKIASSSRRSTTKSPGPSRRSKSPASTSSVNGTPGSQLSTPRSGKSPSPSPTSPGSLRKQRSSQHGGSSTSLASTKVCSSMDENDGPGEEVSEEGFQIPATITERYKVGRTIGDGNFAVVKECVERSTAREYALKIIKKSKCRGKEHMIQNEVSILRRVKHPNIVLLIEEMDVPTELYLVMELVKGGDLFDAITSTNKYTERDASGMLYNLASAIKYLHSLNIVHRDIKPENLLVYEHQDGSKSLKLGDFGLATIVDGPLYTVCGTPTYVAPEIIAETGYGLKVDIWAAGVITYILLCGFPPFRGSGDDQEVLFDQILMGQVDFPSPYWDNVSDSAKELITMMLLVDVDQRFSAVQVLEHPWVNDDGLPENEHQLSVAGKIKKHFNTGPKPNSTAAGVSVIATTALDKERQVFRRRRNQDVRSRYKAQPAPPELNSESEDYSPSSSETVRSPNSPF

[6] = target: T3, Dual serine/threonine and tyrosine protein kinase (Homo sapiens) (UniProt Q6XUX3); experiment: Selectivity interaction (KinomeScan (DiscoverX)) EUB0000618a DSTYK; conditions: at 10 µM
T3 sequence (whole entry): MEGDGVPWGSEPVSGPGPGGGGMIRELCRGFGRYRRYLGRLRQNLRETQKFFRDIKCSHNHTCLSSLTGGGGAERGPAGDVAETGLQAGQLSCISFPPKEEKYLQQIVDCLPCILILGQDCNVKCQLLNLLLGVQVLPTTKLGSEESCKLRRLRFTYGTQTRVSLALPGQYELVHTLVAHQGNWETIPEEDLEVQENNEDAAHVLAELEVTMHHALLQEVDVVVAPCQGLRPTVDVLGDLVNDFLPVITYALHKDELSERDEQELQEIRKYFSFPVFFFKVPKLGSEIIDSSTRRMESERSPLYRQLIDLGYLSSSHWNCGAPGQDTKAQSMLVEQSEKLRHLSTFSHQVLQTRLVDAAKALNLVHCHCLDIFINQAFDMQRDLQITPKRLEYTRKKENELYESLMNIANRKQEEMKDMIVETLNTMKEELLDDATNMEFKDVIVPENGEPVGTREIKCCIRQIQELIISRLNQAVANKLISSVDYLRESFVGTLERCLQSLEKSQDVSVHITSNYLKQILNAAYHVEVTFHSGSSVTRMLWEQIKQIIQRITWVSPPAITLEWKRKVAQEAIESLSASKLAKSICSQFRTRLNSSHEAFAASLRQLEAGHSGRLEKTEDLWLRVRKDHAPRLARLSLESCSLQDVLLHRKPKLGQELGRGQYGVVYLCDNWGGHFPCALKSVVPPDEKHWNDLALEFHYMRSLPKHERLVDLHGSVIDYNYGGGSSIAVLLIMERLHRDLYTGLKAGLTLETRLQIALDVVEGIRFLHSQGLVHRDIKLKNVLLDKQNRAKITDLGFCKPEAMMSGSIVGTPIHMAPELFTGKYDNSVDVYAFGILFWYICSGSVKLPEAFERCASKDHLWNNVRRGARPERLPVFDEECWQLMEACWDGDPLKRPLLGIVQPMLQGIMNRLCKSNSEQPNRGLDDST

Sequence of DNA (cytosine-5)-methyltransferase 1 (Homo sapiens) (P26358 whole entry): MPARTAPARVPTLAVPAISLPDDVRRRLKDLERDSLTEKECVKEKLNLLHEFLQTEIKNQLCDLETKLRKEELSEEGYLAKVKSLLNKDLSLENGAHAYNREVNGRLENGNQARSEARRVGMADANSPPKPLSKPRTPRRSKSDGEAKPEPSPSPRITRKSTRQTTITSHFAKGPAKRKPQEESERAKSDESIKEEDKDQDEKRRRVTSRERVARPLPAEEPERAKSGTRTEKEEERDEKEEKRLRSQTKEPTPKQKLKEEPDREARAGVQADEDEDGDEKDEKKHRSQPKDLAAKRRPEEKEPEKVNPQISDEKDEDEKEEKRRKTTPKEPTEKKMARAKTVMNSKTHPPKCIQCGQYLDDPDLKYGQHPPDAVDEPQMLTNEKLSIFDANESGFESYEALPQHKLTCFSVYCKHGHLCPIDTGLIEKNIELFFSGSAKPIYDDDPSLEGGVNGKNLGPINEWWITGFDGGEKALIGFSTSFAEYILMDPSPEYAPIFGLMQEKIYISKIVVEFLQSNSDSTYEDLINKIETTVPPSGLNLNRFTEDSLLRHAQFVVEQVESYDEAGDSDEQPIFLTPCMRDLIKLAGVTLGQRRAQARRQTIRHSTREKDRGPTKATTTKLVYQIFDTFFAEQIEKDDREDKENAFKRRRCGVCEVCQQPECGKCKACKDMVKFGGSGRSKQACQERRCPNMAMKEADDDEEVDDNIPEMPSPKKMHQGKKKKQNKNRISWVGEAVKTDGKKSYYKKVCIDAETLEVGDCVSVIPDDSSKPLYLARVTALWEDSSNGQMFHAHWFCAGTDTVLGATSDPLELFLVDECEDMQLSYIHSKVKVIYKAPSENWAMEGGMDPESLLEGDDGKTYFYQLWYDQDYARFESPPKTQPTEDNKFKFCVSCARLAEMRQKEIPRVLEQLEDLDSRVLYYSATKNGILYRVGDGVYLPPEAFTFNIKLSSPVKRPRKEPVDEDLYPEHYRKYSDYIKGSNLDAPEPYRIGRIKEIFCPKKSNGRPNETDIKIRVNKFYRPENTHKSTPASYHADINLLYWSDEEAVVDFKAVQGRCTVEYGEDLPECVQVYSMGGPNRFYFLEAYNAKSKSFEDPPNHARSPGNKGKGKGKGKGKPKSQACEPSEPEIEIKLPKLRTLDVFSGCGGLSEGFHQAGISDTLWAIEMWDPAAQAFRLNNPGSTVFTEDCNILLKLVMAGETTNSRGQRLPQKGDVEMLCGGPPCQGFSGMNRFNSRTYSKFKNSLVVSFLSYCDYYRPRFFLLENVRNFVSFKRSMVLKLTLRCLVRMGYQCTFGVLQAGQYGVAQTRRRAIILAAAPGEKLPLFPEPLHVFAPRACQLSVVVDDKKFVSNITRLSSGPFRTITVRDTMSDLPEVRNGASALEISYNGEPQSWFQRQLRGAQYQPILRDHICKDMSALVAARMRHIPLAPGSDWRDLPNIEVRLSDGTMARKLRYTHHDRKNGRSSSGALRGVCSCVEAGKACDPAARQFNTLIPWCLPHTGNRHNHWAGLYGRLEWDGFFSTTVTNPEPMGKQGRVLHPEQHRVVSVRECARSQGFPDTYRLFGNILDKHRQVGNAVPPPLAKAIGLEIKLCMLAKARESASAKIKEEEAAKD
Sequence of Tyrosine-protein kinase ABL1 (P00519 whole entry): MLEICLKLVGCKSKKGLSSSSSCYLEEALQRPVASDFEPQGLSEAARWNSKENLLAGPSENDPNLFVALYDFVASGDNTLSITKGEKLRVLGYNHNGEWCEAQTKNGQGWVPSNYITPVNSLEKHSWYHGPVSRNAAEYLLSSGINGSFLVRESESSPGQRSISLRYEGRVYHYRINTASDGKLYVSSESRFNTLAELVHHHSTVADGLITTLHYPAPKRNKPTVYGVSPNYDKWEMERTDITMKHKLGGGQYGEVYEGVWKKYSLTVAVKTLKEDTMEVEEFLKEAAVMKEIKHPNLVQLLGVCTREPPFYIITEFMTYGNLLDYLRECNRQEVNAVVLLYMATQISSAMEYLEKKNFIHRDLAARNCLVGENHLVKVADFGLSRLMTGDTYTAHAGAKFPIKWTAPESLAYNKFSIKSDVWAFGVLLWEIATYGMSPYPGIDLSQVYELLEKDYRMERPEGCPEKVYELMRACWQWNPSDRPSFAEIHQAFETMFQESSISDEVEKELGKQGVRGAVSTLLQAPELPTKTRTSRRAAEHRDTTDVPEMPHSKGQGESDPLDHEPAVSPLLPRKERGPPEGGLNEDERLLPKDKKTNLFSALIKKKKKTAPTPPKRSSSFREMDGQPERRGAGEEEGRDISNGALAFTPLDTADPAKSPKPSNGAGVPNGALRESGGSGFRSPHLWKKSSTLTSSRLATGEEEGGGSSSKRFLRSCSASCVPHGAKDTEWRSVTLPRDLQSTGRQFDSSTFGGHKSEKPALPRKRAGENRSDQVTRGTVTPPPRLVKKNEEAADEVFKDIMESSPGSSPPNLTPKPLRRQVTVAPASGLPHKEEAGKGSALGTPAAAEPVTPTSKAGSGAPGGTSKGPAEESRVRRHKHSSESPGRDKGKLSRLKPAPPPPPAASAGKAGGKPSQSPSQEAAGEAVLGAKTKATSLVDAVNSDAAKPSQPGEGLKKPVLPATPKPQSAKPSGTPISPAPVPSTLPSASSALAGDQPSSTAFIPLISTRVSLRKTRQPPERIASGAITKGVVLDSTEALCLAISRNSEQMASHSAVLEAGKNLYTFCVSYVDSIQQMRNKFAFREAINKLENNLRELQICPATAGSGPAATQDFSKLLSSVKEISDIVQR
Sequence of Atypical kinase COQ8A, mitochondrial (Q8NI60 163-647 limits assumed): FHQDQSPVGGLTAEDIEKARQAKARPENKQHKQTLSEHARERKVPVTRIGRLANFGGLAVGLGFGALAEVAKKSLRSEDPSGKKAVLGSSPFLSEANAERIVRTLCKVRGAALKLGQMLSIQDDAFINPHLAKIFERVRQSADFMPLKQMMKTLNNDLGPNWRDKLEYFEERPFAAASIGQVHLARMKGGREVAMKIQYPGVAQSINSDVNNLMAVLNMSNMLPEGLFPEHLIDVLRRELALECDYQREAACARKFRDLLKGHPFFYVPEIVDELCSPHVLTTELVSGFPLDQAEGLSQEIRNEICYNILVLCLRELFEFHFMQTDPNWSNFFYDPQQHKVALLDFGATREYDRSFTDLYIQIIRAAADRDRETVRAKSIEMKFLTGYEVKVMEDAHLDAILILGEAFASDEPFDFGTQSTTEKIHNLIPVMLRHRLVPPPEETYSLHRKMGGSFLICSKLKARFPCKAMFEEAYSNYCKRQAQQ

COCCN1CCC(c2cc(CN(C)C(=O)c3cccc(Oc4ccccc4)c3)ccn2)CC1
% activity ([1]; at 1 µM): > 95%
% activity ([1]; at 10 µM): 79%

CC[C@@H]1[C@H](F)C(=O)N[C@@H]1COc1nccc2cc(C(N)=O)c(OC)cc12 [ZIMLOVISERTIB]
% of inhibition [2]: 16.4%
% of inhibition [3]: 52%

O[C@H]1CC[C@H](Nc2ncc3nc(Nc4c(F)cc(F)cc4F)n([C@H]4CCOC4)c3n2)CC1
% of control [4]: 35%
% of control [5]: 81%
% of control [6]: 91%
